Measured values from patent US20240358693A1, “METHODS OF TREATING PAIN” (Aisa Pharma, Inc., priority 2023, published 2024).

Tested on: participants with SSc-RP
Assay: Scleroderma Health Assessment Questionnaire (SHAQ): disability indices and visual analog scales
Assay type: in vivo, human
From the text: The standard, validated, patient reported outcome measures tool for SSc patients, the Scleroderma Health Assessment Questionnaire (SHAQ), will be used to assess the participant qualify of life. Details are attached in the Appendix. The participant quality of life will be scored, and a disability index calculated for each questionnaire completed by the patient at Screening and each in-clinic visit. The absolute change in participant quality of life from baseline to the end of each dosing period will be calculated similar to frequency data as before.
The SHAQ includes a Raynaud's VAS, which will be reported at screening and each in-clinic visit. The absolute change in Raynaud-VAS, assessed by the participants response to the SHAQ question ‘In the past 7 days, how much have your Raynaud's interfered with your daily activities?’ at baseline and the end of each dosing period will be calculated similar to frequency data as before.
The SHAQ is used to calculate a Disability Index to assess the participant qualify of life. The eight categories assessed by the Disability Index are 1) dressing and grooming, 2) arising, 3) eating, 4) walking, 5) hygiene, 6) reach, 7) grip, and 8) common daily activities. For each of these categories, patients report the amount of difficulty they have in performing two or three specific activities.
There are four possible responses for the Disability Index questions: • Without any difficulty=0 • With some difficulty=1 • With much difficulty=2 • Unable to do=3. • The highest score reported by the patient for any component question of the eight categories determines the score for that category. • If a component question is left blank or the response is too ambiguous to assign a score, then the score for that category is determined by the remaining completed question(s). • If all component questions are blank or if more than one answer is given, then follow up with the respondent is required. • If the respondent's mark is between the response columns, then move it to the closest one. If it's directly between the two, move it to the higher one.
Each of the disability items on the SHAQ has a companion aids/devices variable that is used to record what type(s) of assistance, if any, the participant uses for his/her usual activities. These variables (see below) are coded as follows: • 0=No assistance is needed. • 1=A special device is used by the patient in his/her usual activities. • 2=The patient usually needs help from another person. • 3=The patient usually needs BOTH a special device AND help from another person.
The scoring variables and scoring rules permit the computation of two disability indices, the Standard Disability Index and the Alternative Disability Index.
This question results in a new set of category scores that are computed by adjusting the score for each category, if necessary, based on the patient's use of an aid or device or assistance for that category. If either devices and/or help from another person are checked for a category, the score is set to “2”, unless the score is already “3” (i.e., scores of “0” or “1” are increased to “2”). For example, if the highest score for the dressing category is “1”, and the patient says they use a device for dressing, the computed category score would be “2”. The sum of the computed categories scores is then calculated and divided by the number of categories answered. This gives a score in the 0 to 3 range.
The aid and device variables are not used to calculate the alternative disability index; it is calculated by adding the scores for each of the categories and dividing by the number of categories answered. This gives a score in the 0 to 3 range.
The standard, validated, patient reported outcome measures tool for SSc patients, the SHAQ, was collected at the time points specified in the study schedules (FIG. 2 and FIGS. 4A and 4B) to assess the participant's quality of life. The SHAQ included a Raynaud's VAS that will also be reported separately.

[1] = Any Cilnidipine (N = 14), Day 12, Modified ITT, SSc patients, Part A
[2] = Any Cilnidipine (N = 14), Day 12, Modified ITT, SSc patients, Part A, Subject 01-110 Day 12 score excluded
[3] = Any Cilnidipine (N = 17), Day 12, PP Population Part A, SSc patients
[4] = Any Cilnidipine (N = 17), PP Population Part A, SSc patients
[5] = Baseline, Cilnidipine 10 mg (N = 4), Patients with Diagnosis of SSc, PP Population Part A

COCCOC(=O)C1=C(C)NC(C)=C(C(=O)OC/C=C/c2ccccc2)C1c1cccc([N+](=O)[O-])c1 (stereo not shown) [Cilnidipine, cilnidipine]
SHAQ VAS- Breathing problems Change (20 mg): −0.83
SHAQ VAS- Raynaud's Change (20 mg): −1.27
SHAQ VAS- overall disease severity Change (20 mg): −1.63
SHAQ VAS-Pain (20 mg): −1.1
SHAQ Alternative Disability Index: Change from Baseline, Mean [1]: −0.016
SHAQ Alternative Disability Index: Change from Baseline, Median [1]: −0.031
SHAQ Alternative Disability Index: In-Clinic Visit (Day 12), Mean [1]: 0.430
SHAQ Alternative Disability Index: In-Clinic Visit (Day 12), Median [1]: 0.250
SHAQ Alternative Disability Index: Percent Change from Baseline, Mean [1]: 17.01%
SHAQ Alternative Disability Index: Percent Change from Baseline, Median [1]: −11.11%
SHAQ Standard Disability Index: Change from Baseline, Mean [1]: −0.050
SHAQ Standard Disability Index: Change from Baseline, Median [1]: 0.000
SHAQ Standard Disability Index: In-Clinic Visit (Day 12), Mean [1]: 0.521
SHAQ Standard Disability Index: In-Clinic Visit (Day 12), Median [1]: 0.250
SHAQ Standard Disability Index: Percent Change from Baseline, Mean [1]: 2.96%
SHAQ Standard Disability Index: Percent Change from Baseline, Median [1]: 0.00%
SHAQ Visual Analogue Scale - Finger Ulcers: Change from Baseline, Mean [1]: −0.623
SHAQ Visual Analogue Scale - Finger Ulcers: Change from Baseline, Median [1]: −0.100
SHAQ Visual Analogue Scale - Finger Ulcers: In-Clinic Visit (Day 12), Mean [1]: 0.900
SHAQ Visual Analogue Scale - Finger Ulcers: In-Clinic Visit (Day 12), Median [1]: 0.200
SHAQ Visual Analogue Scale - Finger Ulcers: Percent Change from Baseline, Mean [1]: −33.91%
SHAQ Visual Analogue Scale - Finger Ulcers: Percent Change from Baseline, Median [1]: −36.11%
SHAQ Visual Analogue Scale - Intestinal Problems: Change from Baseline, Mean [1]: −0.404
SHAQ Visual Analogue Scale - Intestinal Problems: Change from Baseline, Median [1]: 0.000
SHAQ Visual Analogue Scale - Intestinal Problems: In-Clinic Visit (Day 12), Mean [1]: 1.225
SHAQ Visual Analogue Scale - Intestinal Problems: In-Clinic Visit (Day 12), Median [1]: 0.650
SHAQ Visual Analogue Scale - Intestinal Problems: Percent Change from Baseline, Mean [1]: 0.28%
SHAQ Visual Analogue Scale - Intestinal Problems: Percent Change from Baseline, Median [1]: −10.00%
SHAQ Visual Analogue Scale - Overall Disease Severity: Change from Baseline, Mean [1]: −0.904
SHAQ Visual Analogue Scale - Overall Disease Severity: Change from Baseline, Median [1]: −1.300
SHAQ Visual Analogue Scale - Overall Disease Severity: In-Clinic Visit (Day 12), Mean [1]: 2.146
SHAQ Visual Analogue Scale - Overall Disease Severity: In-Clinic Visit (Day 12), Median [1]: 1.300
SHAQ Visual Analogue Scale - Overall Disease Severity: Percent Change from Baseline, Mean [1]: −30.92%
SHAQ Visual Analogue Scale - Overall Disease Severity: Percent Change from Baseline, Median [1]: −41.67%
SHAQ Visual Analogue Scale - Pain: Change from Baseline, Mean [1]: −0.492
SHAQ Visual Analogue Scale - Pain: Change from Baseline, Median [1]: −0.500
SHAQ Visual Analogue Scale - Pain: In-Clinic Visit (Day 12), Mean [1]: 2.236
SHAQ Visual Analogue Scale - Pain: In-Clinic Visit (Day 12), Median [1]: 2.150
SHAQ Visual Analogue Scale - Pain: Percent Change from Baseline, Mean [1]: −23.84%
SHAQ Visual Analogue Scale - Pain: Percent Change from Baseline, Median [1]: −21.87%
SHAQ Visual Analogue Scale - Raynaud's: Change from Baseline, Mean [1]: −0.538
SHAQ Visual Analogue Scale - Raynaud's: Change from Baseline, Median [1]: −0.300
SHAQ Visual Analogue Scale - Raynaud's: In-Clinic Visit (Day 12), Mean [1]: 1.798
SHAQ Visual Analogue Scale - Raynaud's: In-Clinic Visit (Day 12), Median [1]: 1.250
SHAQ Visual Analogue Scale - Raynaud's: Percent Change from Baseline, Mean [1]: −18.26%
SHAQ Visual Analogue Scale - Raynaud's: Percent Change from Baseline, Median [1]: −33.33%
SHAQ Visual Analogue Scale - Breathing Problems: Change from Baseline, Mean [2]: −0.015
SHAQ Visual Analogue Scale - Breathing Problems: Change from Baseline, Median [2]: 0.000
SHAQ Visual Analogue Scale - Breathing Problems: In-Clinic Visit (Day 12), Mean [2]: 1.515
SHAQ Visual Analogue Scale - Breathing Problems: In-Clinic Visit (Day 12), Median [2]: 0.400
SHAQ Visual Analogue Scale - Breathing Problems: Percent Change from Baseline, Mean [2]: 51.98%
SHAQ Visual Analogue Scale - Breathing Problems: Percent Change from Baseline, Median [2]: −21.33%
SHAQ Standard Disability Index, Change from Baseline, Mean [3]: −0.041
SHAQ Standard Disability Index, Change from Baseline, Median [3]: 0.000
SHAQ Standard Disability Index, Percent Change from Baseline, Mean [3]: 3.27%
SHAQ Standard Disability Index, Percent Change from Baseline, Median [3]: 0.00%
SHAQ Standard Disability Index, In-Clinic Visit (Day 12), Mean [4]: 0.539
SHAQ Standard Disability Index, In-Clinic Visit (Day 12), Median [4]: 0.250
SHAQ Alternative Disability Index, Mean [5]: 0.500
SHAQ Alternative Disability Index, Median [5]: 0.438
SHAQ Standard Disability Index, Mean [5]: 0.656
